The source made the active and inactive calls.
Experiments:
Assay type in all cases: functional, organism-based
Candida albicans = experiment: Antifungal activity against Candida albicans
Enterococcus faecalis = experiment: Antibacterial activity against Streptococcus faecalis
Klebsiella pneumoniae = experiment: Antibacterial activity against Klebsiella pneumoniae
Escherichia coli = experiment: Antibacterial activity against Escherichia coli
Pseudomonas aeruginosa = experiment: Antibacterial activity against Pseudomonas aeruginosa
Staphylococcus aureus = experiment: Antibacterial activity against Staphylococcus aureus
Cryptococcus neoformans = experiment: Antifungal activity against Cryptococcus neoformans
Sporothrix schenckii = experiment: Antifungal activity against Sporotrichum schenckii
[1] = test system: Trichophyton mentagrophytes; experiment: Antifungal activity against Trichophyton mentagrophytes
Aspergillus fumigatus = experiment: Antifungal activity against Aspergillus fumigatus

Measured: Activity

COc1ccc2c(c1)-c1c(OC)c(OC)cc3c1[C@H](C2)N(C)CC3
inactive: all assays above

COc1ccc2cc1Oc1ccc(cc1)C[C@H]1c3cc(OC)c(OC)c(c3CCN1C)Oc1c(OC)c(OC)cc3c1[C@H](C2)N(C)CC3
inactive: all assays above

COc1cc(C[C@H]2c3cc(OC)c(OC)cc3CCN2C)c(Oc2cc3c(cc2OC)-c2c(OC)c(OC)cc4c2[C@H](C3)N(C)CC4)cc1OC
inactive: all assays above

COc1ccc2cc1Oc1ccc(cc1)C[C@H]1c3cc(OC)c(OC)c(c3CCN1C)Oc1c(O)c(OC)cc3c1[C@H](C2)N(C)CC3
inactive: all assays above
